Experimental data published in patent EP0193283A1, “Thiazoloquinoline derivatives, process for their preparation and compositions containing them” (BEECHAM GROUP PLC, priority 1985, dated 1986).
Values after ≈ are worked out from the molar mass of the structure shown.

Assays:
Format in all cases: cell-based
[1] = test system: M. gallisepticum S6; assay: In vitro antimycoplasmal MIC; settings: Mycoplasmoides gallisepticum, Friis' agarose medium or SP4 medium with 0.65% agarose
[2] = test system: S.aureus M12; assay: Antibacterial MIC on agar; settings: Staphylococcus aureus
[3] = test system: M. iowae B11; assay: In vitro antimycoplasmal MIC; settings: Friis' agarose medium or SP4 medium with 0.65% agarose
[4] = test system: M. hyorhinis ATCC 23234; assay: In vitro antimycoplasmal MIC; settings: Mesomycoplasma hyorhinis, ATCC23234, Friis' agarose medium or SP4 medium with 0.65% agarose
[5] = test system: S.agalactiae SPAI; assay: Antibacterial MIC on agar; settings: Streptococcus agalactiae
[6] = test system: M. pneumoniae x vs 9 strains; assay: In vitro antimycoplasmal MIC; settings: Mycoplasmoides pneumoniae, XVS9STRAINS, Friis' agarose medium or SP4 medium with 0.65% agarose
[7] = test system: M. bovis NCTC 10131; assay: microbe, parasite or virus in culture; settings: NCTC10131
[8] = test system: M. dispar NCTC 10125; assay: In vitro antimycoplasmal MIC; settings: Friis' agarose medium or SP4 medium with 0.65% agarose
[9] = test system: M. hyosynoviae ATCC 25591; assay: In vitro antimycoplasmal MIC; settings: Friis' agarose medium or SP4 medium with 0.65% agarose
[10] = test system: M. meleagridis 17529; assay: In vitro antimycoplasmal MIC; settings: Friis' agarose medium or SP4 medium with 0.65% agarose
[11] = test system: M. hyopneumoniae x 5 strains; assay: In vitro antimycoplasmal MIC; settings: Mesomycoplasma hyopneumoniae, X5STRAINS, Friis' agarose medium or SP4 medium with 0.65% agarose
[12] = test system: M. synoviae ATCC 25204; assay: In vitro antimycoplasmal MIC; settings: Mycoplasmopsis synoviae, ATCC25204, Friis' agarose medium or SP4 medium with 0.65% agarose
[13] = test system: S.dysgalactiae FRO 7A; assay: Antibacterial MIC on agar; settings: Streptococcus dysgalactiae, FRO7A

Q: Which MIC [1] does the source give for CCNCC1CCN(c2cc3c(cc2F)c(=O)c(C(=O)O)c2scc(C)n23)C1 (stereo not shown) [Example 1, 8-[3-[(Ethylamino)methl]-1-pyrrolidinyl]-7-fluoro-1-methyl-5-oxo-5H-thiazolo[3,2-a]-quinoline-4-carboxylic acid] here?
A: Its MIC is 0.025 ng/mL (≈ 0.062 nM).

Q: And the MIC [2]?
A: Its MIC is 120 ng/mL (≈ 297 nM).

Q: What about the MIC [3] of the same molecule?
A: Its MIC is 0.025 ng/mL (≈ 0.062 nM).

Q: What about the MIC [4] of the same molecule?
A: The MIC was 0.05 ng/mL (≈ 0.124 nM).

Q: And the MIC [5]?
A: The MIC was 1000 ng/mL (≈ 2480 nM).

Q: What about the MIC [6] of the same molecule?
A: The MIC was 0.13 ng/mL (≈ 0.322 nM).

Q: And the MIC [7]?
A: The MIC was 0.1 ng/mL (≈ 0.248 nM).

Q: What about the MIC [8] of the same molecule?
A: Its MIC is 0.025 ng/mL (≈ 0.062 nM).

Q: And the MIC [9]?
A: Its MIC is 0.05 ng/mL (≈ 0.124 nM).

Q: And the MIC [10]?
A: The MIC was 0.025 ng/mL (≈ 0.062 nM).

Q: And the MIC [11]?
A: The MIC was 0.001 ng/mL (≈ 0.00248 nM).

Q: What about the MIC [12] of the same molecule?
A: Its MIC is 0.1 ng/mL (≈ 0.248 nM).

Q: And the MIC [13]?
A: The MIC was 500 ng/mL (≈ 1240 nM).
